The molecules below were run against human P2X3 receptor (Homo sapiens (Human), UniProt P56373) (assay: Evaluation of human P2X3 receptor inhibitory activity (Fluo-3 calcium fluorescence, FDSS 3000, ATP stimulation)). Conditions: C6BU-1 cells stably expressing human P2X3 receptor.
Sequence of human P2X3 receptor (P56373 whole entry): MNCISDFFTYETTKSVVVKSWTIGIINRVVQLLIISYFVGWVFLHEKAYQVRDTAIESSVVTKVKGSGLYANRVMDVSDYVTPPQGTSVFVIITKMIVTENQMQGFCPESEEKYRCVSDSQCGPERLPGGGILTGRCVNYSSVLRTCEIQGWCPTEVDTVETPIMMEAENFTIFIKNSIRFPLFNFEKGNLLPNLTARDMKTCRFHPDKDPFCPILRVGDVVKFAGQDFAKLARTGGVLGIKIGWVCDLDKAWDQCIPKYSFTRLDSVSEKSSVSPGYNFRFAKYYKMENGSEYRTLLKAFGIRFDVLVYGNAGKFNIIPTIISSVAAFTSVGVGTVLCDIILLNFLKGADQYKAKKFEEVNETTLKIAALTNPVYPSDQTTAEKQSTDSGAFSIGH
Type: cell-based
`CCn1c(=O)[nH]/c(=N\c2ccc(Oc3ccnc(C(=O)O)c3)cc2)n(Cc2ccc(Cl)cn2)c1=O` [Compound I-2211] showed an IC50 of 14 nM.
`CNC(=O)[C@@H](C)Cn1c(=O)[nH]/c(=N\c2ccc(OC(C)C)c(C)c2)n(Cc2ccc(Cl)cc2)c1=O` [Compound I-0721] showed an IC50 of 13 nM.
Molecule `COCCOc1ccc(/N=c2\[nH]c(=O)n(C[C@H](C)C(=O)OC)c(=O)n2Cc2ccc(Cl)cc2)cc1` [Compound I-0745] has an IC50 of 125 nM.
`CCOC(=O)CCn1c(=O)[nH]/c(=N\c2ccc3[nH]c(C)c(C)c3c2)n(Cc2ccc(Cl)cc2)c1=O` [Compound I-1931] showed an IC50 of 9 nM.
In the case of `CCn1c(=O)[nH]/c(=N\c2ccc(Oc3cc(C(=O)OC)ncn3)cc2)n(Cc2ccc(Cl)cc2)c1=O` [Compound I-2206], the IC50 is reported as 12 nM.
For `Cc1ccc(Cn2c(=O)n(C)c(=O)[nH]/c2=N\c2ccc(Oc3ccnc(C(=O)O)c3)cc2)cc1` [Compound I-2100], the IC50 was 7 nM.
Molecule `Cc1[nH]c2ccc(/N=c3\[nH]c(=O)n(CCCO)c(=O)n3Cc3ccc(Cl)cc3)cc2c1C` [Compound I-1949] has an IC50 of 5 nM.
Work on `Cc1ccc(Cn2c(=O)n(CCC(=O)O)c(=O)[nH]/c2=N\c2ccc(OC(C)C)cc2F)cc1` [Compound I-2049] yielded an IC50 of 85 nM.
`CCn1c(=O)[nH]/c(=N\c2ccc(Oc3cccc(C(=O)OC)n3)cc2)n(Cc2ccc(Cl)cc2)c1=O` [Compound I-2067] gave an IC50 of 21 nM.
For `CC[C@H](CC(=O)O)n1c(=O)[nH]/c(=N\c2ccc(OC(C)C)c(C)c2)n(Cc2ccc(Cl)cc2)c1=O` [Compound I-0799], the IC50 was 281 nM.
For `CCCc1ccc(/N=c2\[nH]c(=O)n(C[C@H](C)C(=O)O)c(=O)n2Cc2ccc(Cl)cc2)cc1` [Compound I-0627], the IC50 was 91 nM.
For `Cc1ccc(Oc2ccc(/N=c3\[nH]c(=O)n([C@H](C)[C@H](C)C(=O)O)c(=O)n3Cc3ccc(Cl)cc3)cc2)cn1` [Compound I-1389], the IC50 was 12 nM.
`Cc1cc(/N=c2\[nH]c(=O)n([C@H]3C[C@@H](C(=O)O)N(C(=O)OC(C)(C)C)C3)c(=O)n2Cc2ccc(Cl)cc2)ccc1OC(C)C` [Compound I-0708] showed an IC50 of 966 nM.
Work on `CCn1c(=O)[nH]/c(=N\c2ccc(Oc3cncc(C(=O)O)c3)cc2)n(Cc2ccc(C)cc2)c1=O` [Compound I-2078] yielded an IC50 of 8 nM.
`COCc1cc(/N=c2\[nH]c(=O)n(CC(C)(C)C(=O)OC)c(=O)n2Cc2ccc(Cl)cc2)ccc1OC(C)C` [Compound I-1422] was tested, and the IC50 was 529 nM.
For `CCOC(=O)CCn1c(=O)[nH]/c(=N\c2ccc(CC(C)C)c(OC)c2)n(Cc2ccc(Cl)cc2)c1=O` [Compound I-1308], the IC50 was 29 nM.
`C=Cc1cc(/N=c2\[nH]c(=O)n(CCC(=O)O)c(=O)n2Cc2ccc(C)cc2)ccc1OC(C)C` [Compound I-1192] was tested, and the IC50 was 20 nM.
Work on `CCOC(=O)Cc1c(C)oc2ccc(/N=c3\[nH]c(=O)n(CC)c(=O)n3Cc3ccc(Cl)cc3)cc12` [Compound I-2149] yielded an IC50 of 791 nM.
Molecule `Cc1ccc(Cn2c(=O)n([C@H](C)[C@H](C)C(=O)O)c(=O)[nH]/c2=N\c2ccc(OC(C)C)cc2)cc1` [Compound I-1336] has an IC50 of 71 nM.
In the case of `CCn1c(=O)[nH]/c(=N\c2ccc(Oc3cc(C(=O)OC)on3)cc2)n(Cc2ccc(Cl)cc2)c1=O` [Compound I-1941], the IC50 is reported as 5 nM.
With `CCCc1ccc(/N=c2\[nH]c(=O)n(CCC(=O)O)c(=O)n2Cc2ccc(C)cc2)cc1C` [Compound I-1223] the IC50 was 297 nM.
`Cc1ccc(Cn2c(=O)n([C@H](C)[C@H](C)C(=O)O)c(=O)[nH]/c2=N\c2ccc(N3CCCCC3)cc2)cc1` [Compound I-1459] showed an IC50 of 34 nM.
In the case of `COc1cc(/N=c2\[nH]c(=O)n(CC(CO)CO)c(=O)n2Cc2ccc(Cl)cc2)ccc1OC(C)C` [Compound I-1985], the IC50 is reported as 11 nM.
In the case of `CNC(=O)c1cc(Oc2ccc(/N=c3\[nH]c(=O)[nH]c(=O)n3Cc3ccc(Cl)cc3)cc2F)ccn1` [Compound I-2101], the IC50 is reported as 26 nM.

Same assay, conditions: C6BU-1 cells stably expressing human P2X3 receptor, Fluo-3 fluorescence, FDSS 3000
In the case of `COC(=O)[C@@H](C)Cn1c(=O)[nH]/c(=N\c2ccc(OC(F)F)c(Cl)c2)n(Cc2ccc(C)cc2)c1=O` [Compound I-1022], the IC50 is reported as 14 nM.
`C=Cc1cc(/N=c2\[nH]c(=O)n(C[C@H](C)C(=O)O)c(=O)n2Cc2ccc(C)cc2)ccc1OC(C)C` [Compound I-0910, (S)-1-(4-methylbenzyl)-6-(3-vinyl-4-isopropoxyphenylimino)-3-(2-hydroxycarbonylpropyl)-1,3,5-triazinane-2,4-dion] gave an IC50 of 8 nM.
`CCOc1ccc(/N=c2\[nH]c(=O)n([C@@H](C)[C@@H](C)C(=O)O)c(=O)n2Cc2ccc(C)cc2)cc1Cl` [Compound I-0973] was tested, and the IC50 was 19 nM.
`CCc1oc2ccc(/N=c3\[nH]c(=O)n(CC(=O)O)c(=O)n3Cc3ccc(Cl)cc3)cc2c1C` [Compound I-1609] gave an IC50 of 187 nM.
With `COC(=O)C(C)(C)Cn1c(=O)[nH]/c(=N\c2ccc3nc(C)sc3c2)n(Cc2ccc(C)cc2)c1=O` [Compound I-1571] the IC50 was 4 nM.
`COC(=O)CCn1c(=O)[nH]/c(=N\c2cn(C)nc2C(=O)NC(C)C)n(Cc2ccc(C)cc2)c1=O` [Compound I-1804] was tested, and the IC50 was 162 nM.
`CCc1oc2ccc(/N=c3\[nH]c(=O)n(CCCC(=O)O)c(=O)n3Cc3ccc(Cl)cc3)cc2c1C` [Compound I-1704] was tested, and the IC50 was 15 nM.
Work on `CC(C)N1C(=O)Cc2cc(/N=c3\[nH]c(=O)n([C@@H](C)[C@@H](C)C(=O)O)c(=O)n3Cc3ccc(Cl)cc3)ccc21` [Compound I-1779] yielded an IC50 of 203 nM.
`Cc1nc2ccc(/N=c3\[nH]c(=O)n(CCC4COC(C)(C)OC4)c(=O)n3Cc3ccc(Cl)cc3)cc2s1` [Compound I-1852] showed an IC50 of 5 nM.
`COC(=O)[C@@H](C)Cn1c(=O)[nH]/c(=N\c2ccc(OC(F)F)cc2)n(Cc2ccc(Cl)cc2)c1=O` [Compound I-1166] gave an IC50 of 126 nM.
In the case of `CCOC(=O)CCn1c(=O)[nH]/c(=N\c2ccc(OCC(C)(C)C)cc2)n(Cc2ccc(C)cc2)c1=O` [Compound I-1056], the IC50 is reported as 177 nM.
Work on `CCc1oc2ccc(/N=c3\[nH]c(=O)n(CCCO)c(=O)n3Cc3ccc(Cl)cc3)cc2c1C` [Compound I-1625] yielded an IC50 of 6 nM.
In the case of `CCCOc1ccc(/N=c2\[nH]c(=O)n(C[C@@H](C)C(=O)O)c(=O)n2Cc2ccc(Cl)cc2)cc1` [Compound I-1035], the IC50 is reported as 65 nM.
`C[C@@H](C(=O)O)[C@H](C)n1c(=O)[nH]/c(=N\c2ccc3c(c2)C(=O)CC3)n(Cc2ccc(Cl)cc2)c1=O` [Compound I-1831] gave an IC50 of 739 nM.
`COC(=O)[C@@H](C)Cn1c(=O)[nH]/c(=N\c2ccc(CC3CCCC3)cc2)n(Cc2ccc(Cl)cc2)c1=O` [Compound I-1097] showed an IC50 of 141 nM.
`Cc1cc(/N=c2\[nH]c(=O)n(C3CN(C(=O)OC(C)(C)C)C3)c(=O)n2Cc2ccc(Cl)cc2)ccc1OC(C)C` [Compound I-1641] was tested, and the IC50 was 20 nM.
`COc1ccc(Oc2ccc(/N=c3\[nH]c(=O)n(CCO)c(=O)n3Cc3ccc(Cl)cc3)cc2)cn1` [Compound I-1732] gave an IC50 of 11 nM.
For `Cc1ccc(Cn2c(=O)n(CC3(CC(=O)O)CC3)c(=O)[nH]/c2=N\c2ccc(OC(C)C)c(Cl)c2)cc1` [Compound I-0983], the IC50 was 7 nM.
Molecule `O=c1[nH]/c(=N\c2ccc(Oc3ccnc(O)c3)cc2)n(Cc2ccc(Cl)cc2)c(=O)n1CC(CO)CO` [Compound I-1714] has an IC50 of 3 nM.

Same assay, conditions: human P2X3 receptor, Test Example 1
With `CCc1cc2cc(/N=c3\[nH]c(=O)n(CC4COC(C)(C)OC4)c(=O)n3Cc3ccc(Cl)cc3)ccc2o1` [Compound I-2312] the IC50 was 5 nM.
`CNC(=O)Cn1c(=O)[nH]/c(=N\c2ccc(Oc3cnsn3)cc2)n(Cc2ccc(Cl)cc2)c1=O` [Compound I-2676] was tested, and the IC50 was 13 nM.
`COC(=O)[C@@H](C)Cn1c(=O)[nH]/c(=N\c2ccc(C3CC3)c(C3CC3)c2)n(Cc2ccc(C)cc2)c1=O` [Compound I-1488] was tested, and the IC50 was 652 nM.
For `Cn1c(=O)[nH]/c(=N\c2ccc(Oc3cc(C(N)=O)n[nH]3)cc2)n(Cc2ccc(Cl)cc2)c1=O` [Compound I-2416], the IC50 was 54 nM.
`CCn1c(=O)[nH]/c(=N\c2ccc(Oc3nccc(C(N)=O)n3)cc2)n(Cc2ccc(Cl)cc2)c1=O` [Compound I-2311] gave an IC50 of 8 nM.
`Cn1c(=O)[nH]/c(=N\c2ccc(Oc3ccc(C#N)cn3)cc2)n(Cc2ccc(Cl)cc2)c1=O` [Compound I-2392] gave an IC50 of 11 nM.
`Cc1nsc(Oc2ccc(/N=c3\[nH]c(=O)n(C[C@@H](O)CO)c(=O)n3Cc3ccc(Cl)cc3)cc2)n1` [Compound I-2577] showed an IC50 of 8 nM.
`NC(=O)CCn1c(=O)[nH]/c(=N\c2ccc(Oc3ccon3)cc2)n(Cc2ccc(Cl)cc2)c1=O` [Compound I-2443] gave an IC50 of 24 nM.
Molecule `Cc1ccc(Cn2c(=O)n(CCC(=O)O)c(=O)[nH]/c2=N\c2ccc(Oc3cccc(C(N)=O)n3)cc2)cc1` [Compound I-2683] has an IC50 of 12 nM.
Work on `CCOC(=O)Cn1c(=O)[nH]/c(=N\c2ccc(Oc3ncccn3)cc2)n(Cc2ccc(Cl)cc2)c1=O` [Compound I-2657] yielded an IC50 of 7 nM.
`Cc1cc(/N=c2\[nH]c(=O)n([C@H]3CC[C@H](C(=O)O)CC3)c(=O)n2Cc2ccc(Cl)cc2)ccc1OC(C)C` [Compound I-0850] was tested, and the IC50 was 62 nM.
`CCn1c(=O)[nH]/c(=N\c2ccc(Oc3cc(C(N)=O)n[nH]3)cc2)n(Cc2ccc(Cl)cc2)c1=O` [Compound I-2417] was tested, and the IC50 was 41 nM.
`Cc1ccc(Cn2c(=O)n(C[C@H](C)C(=O)O)c(=O)[nH]/c2=N\c2ccc(OCC(C)C)c(C)c2)cc1` [Compound I-0836] was tested, and the IC50 was 95 nM.
With `O=C(O)Cn1c(=O)[nH]/c(=N\c2ccc(Oc3cnsn3)cc2)n(Cc2ccc(Cl)cc2)c1=O` [Compound I-2643] the IC50 was 491 nM.
For `Cc1nsc(Oc2ccc(/N=c3\[nH]c(=O)n(C[C@H](O)CO)c(=O)n3Cc3ccc(F)cc3)cc2F)n1` [Compound I-2707], the IC50 was 7 nM.
`CCOC(=O)CCn1c(=O)[nH]/c(=N\c2ccc(OCC)c(Cl)c2)n(Cc2ccc(C)cc2)c1=O` [Compound I-0867] gave an IC50 of 6 nM.
Molecule `COC(=O)[C@@H](C)Cn1c(=O)[nH]/c(=N\c2ccc(C3CC3)c(Cl)c2)n(Cc2ccc(C)cc2)c1=O` [Compound I-1487] has an IC50 of 106 nM.
Molecule `Cn1cc(Oc2ccc(/N=c3\[nH]c(=O)n(CCC(=O)O)c(=O)n3Cc3ccc(Cl)cc3)cc2)ccc1=O` [Compound I-1512] has an IC50 of 13 nM.
With `CCn1c(=O)[nH]/c(=N\c2ccc(Oc3nc(C(=O)O)cs3)cc2)n(C[C@H]2CC[C@H](C)CC2)c1=O` [Compound I-2348] the IC50 was 4 nM.
For `CCn1c(=O)[nH]/c(=N\c2cccc(Oc3cccc(C(=O)O)n3)c2)n(Cc2ccc(Cl)cc2)c1=O` [Compound I-2592], the IC50 was 350 nM.
With `CCn1c(=O)[nH]/c(=N\c2ccc(Oc3ccnc(CNC)c3)cc2)n(Cc2ccc(Cl)cc2)c1=O` [Compound I-2245] the IC50 was 108 nM.

Reference: patent US9718790B2, “Triazine derivative and pharmaceutical composition having an analgesic activity comprising the same” (SHIONOGI & CO., LTD., priority 2010, dated 2017)
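Further: stimulus was 50 nM ATP with fluorescence followed for 3 min, and the response per well was peak post-ATP fluorescence divided by the reading at measurement start.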
